# Results reported in US8664276B2, “Stilbene analogs and methods of treating cancer” (University of Kentucky Research Foundation, priority 2011, dated 2014).
# Columns and labels:
# LS174 CRC cells = experiment: CRC cell proliferation assay (Vi-Cell); format: cell-based
# Method: Luciferase and cell proliferation assay. HEK293T cells were transiently transfected in a 12-well plate with 0.2 μg of the Super8xTOPFlash reporter and 0.05 μg of Renilla luciferase reporter. Culture medium was changed after 12 h. After 6 h, cells were treated with DMSO or Wnt inhibitors for 12 h, and then treated with 25 mM LiCl or Wnt conditioned medium. After 12 h, cells were harvested and luciferase activity measured by Dual-luciferase Reporter Assay System (Promega, Madison Wis.). All conditions were done in triplicate and each experiment was carried out at least two times. For cell proliferation assay, CRC cells were treated with DMSO or inhibitors for 2d and 4d. The cell numbers and viability were analyzed by Vi-Cell Cell Viability Analyzer.
# Western blot and cell proliferation assay. The activity of fluorinated N,N-dialkylaminostilbenes (FIDAS or FIDAS agents) on Wnt signaling activity in cancer cells were analyzed by Western blot with antibodies against Wnt target genes, such as c-Myc, Axin2. The effects of FlDAS agents on cancer cell growth were analyzed using Cell Viability Analyzer (Beckman Coulter, Vi-Cell XR). These assays have been described previously (see Zhang et al., J. of Med. Chem. 54, 1288-1297 (2011)).
# β-catenin = β-catenin localization by immunofluorescence in LS174 cells; format: cell-based; details: 10 μM, 24 h, versus DMSO
# Method: Immunofluorescence. Cells grown on cover glass were fixed by 4% paraformaldehyde for 20 min at room temperature. The cells were permeabilized with PBS containing 0.3% (w/v) Triton X-100 and blocked by 5% normal goat serum in PBS for 30 min. Anti-β-catenin antibody (1:300, Sigma, St. Louis, Mo.) was diluted in blocking solution and incubated with cells overnight. The cells were washed 3 times with PBS and further incubated with Alexa-488-labeled anti-rabbit IgG (1:500) diluted in PBS for 40 min. The cover glasses were washed, mounted on glass slides, viewed and photographed with an Olympus FW1000 confocal microscope. Cells grown on cover glass were treated with fluorescent compounds for 2 h, 6 h, 12 h and 24 h respectively. Treated cells were fixed by 4% paraformaldehyde for 20 min at room temperature. Then cells were washed 3 times with PBS and mounted on glass slides, viewed under the fluorescence of 405 nm-wavelength and photographed with an Olympus FW1000 confocal microscope.
# Nevertheless, compound 4s lends itself well to a mechanistic study of the site of action of these compounds. LS174 cells were treated with 10 μM of compound 4s for 2 h, 6 h, 12 h, and 24 h. The cells were fixed and analyzed by confocal fluorescence microscopy. […] The cells were fixed and β-catenin localization analyzed by immunofluorescence. […]
# MAT2A [1] = target: T1, MAT2A (Homo sapiens, UniProt P31153); experiment: In-vitro SAM synthesis by MAT2A (LC-MS/MS); format: biochemical; parameters: GST (N); made in house
# Method: (§1) SAM and SAH analysis by LC-MS/MS. The LC-MS/MS system consisted of two Varian ProStar 210 LC Pumps coupled with a Varian 1200L triple quadrupole mass spectrometer. The separation was performed on a Hypercarb column (50 mm×2.1 mm, […], Thermo Scientific #35003-052130). Gradient elution started with 98% solution A (0.1% formic acid in water), followed by an increase to 38% solution B (0.1% formic acid in acetonitrile) in 8 min. The column was than flushed with 90% B for 5 min and regenerated with 98% A for another 8 min. The flow rate was 0.25 mL/min. Between the 3rd and 11th min, the eluent was switched to the ion source of the mass spectrometer. The precursor product transitions for SAM (m/z 399→250), SAH (m/z 385→250) and [d-4]-SAH (m/z 389→136) were monitored. The optimized ion source parameters were: Capillary Voltage: 32 V for both SAM and SAH, Collision energy: 9 V and 7V for SAM and SAH, respectively, Needle voltage: 5000 V and the Shield voltage: 600V. Nitrogen was used as the drying gas at a temperature of 300° C. and the interface heater was set to 50° C. The drying gas and nebulizing gas were set to 20 and 50 psi, respectively.
# SAM synthesis. […] purified MAT2A was incubated with 1 mM L-methionine and 1 mM ATP in […] reaction solution (50 mM Tris.Cl, 50 mM KCl, 10 mM MgCl2) for 5 min at 25° C. […] SAM was analyzed by LC-MS/MS. […]
# MAT2A [2] = target: T1, MAT2A; experiment: Cell based SAM and SAH analysis in LS174 colon cancer cells (LC-MS/MS); parameters: endogenous in cells; host or cells: LS174T; details: 10 μM of 4r versus 30 μM of resveratrol
# Method: as §1
# Cell based SAM analysis. […] 5 ul of supernatants were analyzed by LC-MS/MS using a modified method based on a previous publication (see Krijt et al., J Chromatogr B Analyt Technol Biomed Life Sci 877, 2061-6, (2009)). […]
smiles,measurement,setting,value
"CN(C)c1ccc(/C=C/c2c(F)cccc2F)cc1 [4r, (E)-4-(2,6-Difluorostyryl)-N,N-dimethylaniline]",LS174 cell proliferation at nanomolar concentrations,"LS174 CRC cells; 0.1, 0.3 and 1 μM (FIG. 7A)",inhibited LS174 cell proliferation at nanomolar concentrations
same,CRC cell growth inhibition compared with other compounds,LS174 CRC cells; cell proliferation assay,more potent than compound 4e
same,nuclear β-catenin levels,β-catenin,decreased
same,MAT2A activity in SAM synthesis,MAT2A [1],inhibit MAT2A activity
same,MAT2A activity (SAM levels) in LS174 cells versus resveratrol,MAT2A [2],more significantly than 30 μM of resveratrol
